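Growth conditions: 96-well plates. Treatment: test compound, 48 hours, 5 concentrations. Analysis: linear interpolation between bracketing concentrations; unreached endpoints set to highest concentration. The concentration for full growth arrest is given as TGI.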
Tests used:
Test in all cases: NCI tumour cell line growth inhibition, 48 h
UO-31 renal = tested on: UO-31 renal
ACHN renal = tested on: ACHN renal
CAKI-1 renal = tested on: CAKI-1 renal
HT29 colon = tested on: HT29 colon
IGROV1 ovarian = tested on: IGROV1 ovarian
MDA-MB-231 breast = tested on: MDA-MB-231 breast
SK-MEL-2 melanoma = tested on: SK-MEL-2 melanoma
NCI/ADR-RES ovarian = tested on: NCI/ADR-RES ovarian
SF-268 CNS = tested on: SF-268 CNS
TK-10 renal = tested on: TK-10 renal
SK-MEL-5 melanoma = tested on: SK-MEL-5 melanoma
NCI-H23 lung = tested on: NCI-H23 lung
UACC-62 melanoma = tested on: UACC-62 melanoma
SW-620 colon = tested on: SW-620 colon
MCF7 breast = tested on: MCF7 breast
A498 renal = tested on: A498 renal
NCI-H460 lung = tested on: NCI-H460 lung
SF-295 CNS = tested on: SF-295 CNS
MDA-MB-435 = tested on: MDA-MB-435
A549 NSCLC = tested on: A549 NSCLC
HOP-92 NSCLC = tested on: HOP-92 NSCLC
MALME-3M melanoma = tested on: MALME-3M melanoma
LOX IMVI melanoma = tested on: LOX IMVI melanoma
KM12 colon = tested on: KM12 colon
UACC-257 melanoma = tested on: UACC-257 melanoma
T-47D breast = tested on: T-47D breast
HCT-116 colon = tested on: HCT-116 colon
BT-549 breast = tested on: BT-549 breast
786-0 renal = tested on: 786-0 renal
OVCAR-4 ovarian = tested on: OVCAR-4 ovarian
OVCAR-8 ovarian = tested on: OVCAR-8 ovarian
EKVX NSCLC = tested on: EKVX NSCLC
SNB-19 CNS = tested on: SNB-19 CNS
RXF 393 renal = tested on: RXF 393 renal
SF-539 CNS = tested on: SF-539 CNS
COLO 205 colon = tested on: COLO 205 colon
DU-145 prostate = tested on: DU-145 prostate
SK-OV-3 ovarian = tested on: SK-OV-3 ovarian
M14 melanoma = tested on: M14 melanoma
SN12C renal = tested on: SN12C renal
HCC-2998 colon = tested on: HCC-2998 colon
NCI-H226 lung = tested on: NCI-H226 lung
OVCAR-5 ovarian = tested on: OVCAR-5 ovarian
HOP-62 NSCLC = tested on: HOP-62 NSCLC
MDA-N = tested on: MDA-N
PC-3 prostate = tested on: PC-3 prostate
SNB-75 CNS = tested on: SNB-75 CNS
RPMI-8226 leukemia = tested on: RPMI-8226 leukemia
SK-MEL-28 melanoma = tested on: SK-MEL-28 melanoma
U251 CNS = tested on: U251 CNS
HCT-15 colon = tested on: HCT-15 colon
HS 578T breast = tested on: HS 578T breast
NCI-H522 lung = tested on: NCI-H522 lung
OVCAR-3 ovarian = tested on: OVCAR-3 ovarian
MOLT-4 leukemia = tested on: MOLT-4 leukemia
K-562 leukemia = tested on: K-562 leukemia
CCRF-CEM leukemia = tested on: CCRF-CEM leukemia
HL-60(TB) leukemia = tested on: HL-60(TB) leukemia

## O=C(c1ccccc1)c1ccc2c(c1)nc1n2C(c2c(F)cccc2F)SC1 (stereo unspecified)
UO-31 renal
  TGI: 54.8 µM
ACHN renal
  TGI: > 100 µM
CAKI-1 renal
  TGI: > 100 µM
HT29 colon
  TGI: 55.9 µM
IGROV1 ovarian
  TGI: > 100 µM
MDA-MB-231 breast
  TGI: > 100 µM
SK-MEL-2 melanoma
  TGI: 62.4 µM
NCI/ADR-RES ovarian
  TGI: > 100 µM
SF-268 CNS
  TGI: > 100 µM
TK-10 renal
  TGI: > 100 µM
SK-MEL-5 melanoma
  TGI: 27.8 µM
NCI-H23 lung
  TGI: > 100 µM
UACC-62 melanoma
  TGI: 72.2 µM
SW-620 colon
  TGI: > 100 µM
MCF7 breast
  TGI: > 100 µM
A498 renal
  TGI: 72.5 µM
NCI-H460 lung
  TGI: > 100 µM
SF-295 CNS
  TGI: > 100 µM
MDA-MB-435
  TGI: > 100 µM
A549 NSCLC
  TGI: > 100 µM
HOP-92 NSCLC
  TGI: > 100 µM
MALME-3M melanoma
  TGI: > 100 µM
LOX IMVI melanoma
  TGI: > 100 µM
KM12 colon
  TGI: 66.7 µM
UACC-257 melanoma
  TGI: > 100 µM
T-47D breast
  TGI: 43.5 µM
HCT-116 colon
  TGI: 42.2 µM
BT-549 breast
  TGI: > 100 µM
786-0 renal
  TGI: > 100 µM
OVCAR-4 ovarian
  TGI: > 100 µM
OVCAR-8 ovarian
  TGI: > 100 µM
EKVX NSCLC
  TGI: 84.5 µM
SNB-19 CNS
  TGI: > 100 µM
RXF 393 renal
  TGI: > 100 µM
SF-539 CNS
  TGI: > 100 µM
COLO 205 colon
  TGI: 46.4 µM
DU-145 prostate
  TGI: > 100 µM
SK-OV-3 ovarian
  TGI: > 100 µM
M14 melanoma
  TGI: 61 µM
SN12C renal
  TGI: > 100 µM
HCC-2998 colon
  TGI: > 100 µM
NCI-H226 lung
  TGI: > 100 µM
OVCAR-5 ovarian
  TGI: > 100 µM
HOP-62 NSCLC
  TGI: > 100 µM
MDA-N
  TGI: 55.1 µM
PC-3 prostate
  TGI: > 100 µM
SNB-75 CNS
  TGI: 99 µM
RPMI-8226 leukemia
  TGI: > 100 µM
SK-MEL-28 melanoma
  TGI: > 100 µM
U251 CNS
  TGI: > 100 µM
HCT-15 colon
  TGI: > 100 µM
HS 578T breast
  TGI: > 100 µM
NCI-H522 lung
  TGI: > 100 µM
OVCAR-3 ovarian
  TGI: 96.2 µM

## Cc1cc(S(=O)(=O)NC2=NCCN2Cc2ccccc2)c(S)cc1Cl
MOLT-4 leukemia
  TGI: > 100 µM
ACHN renal
  TGI: > 100 µM
CAKI-1 renal
  TGI: > 100 µM
HT29 colon
  TGI: > 100 µM
IGROV1 ovarian
  TGI: > 100 µM
MDA-MB-231 breast
  TGI: > 100 µM
SK-MEL-2 melanoma
  TGI: > 100 µM
NCI/ADR-RES ovarian
  TGI: > 100 µM
SF-268 CNS
  TGI: > 100 µM
TK-10 renal
  TGI: > 100 µM
SK-MEL-5 melanoma
  TGI: > 100 µM
NCI-H23 lung
  TGI: > 100 µM
UACC-62 melanoma
  TGI: > 100 µM
SW-620 colon
  TGI: > 100 µM
MCF7 breast
  TGI: > 100 µM
NCI-H460 lung
  TGI: > 100 µM
SF-295 CNS
  TGI: > 100 µM
MDA-MB-435
  TGI: > 100 µM
A549 NSCLC
  TGI: > 100 µM
MALME-3M melanoma
  TGI: > 100 µM
LOX IMVI melanoma
  TGI: > 100 µM
KM12 colon
  TGI: > 100 µM
K-562 leukemia
  TGI: > 100 µM
UACC-257 melanoma
  TGI: > 100 µM
HCT-116 colon
  TGI: > 100 µM
BT-549 breast
  TGI: > 100 µM
786-0 renal
  TGI: > 100 µM
OVCAR-4 ovarian
  TGI: > 100 µM
OVCAR-8 ovarian
  TGI: > 100 µM
EKVX NSCLC
  TGI: > 100 µM
SNB-19 CNS
  TGI: > 100 µM
SF-539 CNS
  TGI: > 100 µM
COLO 205 colon
  TGI: > 100 µM
DU-145 prostate
  TGI: > 100 µM
CCRF-CEM leukemia
  TGI: > 100 µM
SK-OV-3 ovarian
  TGI: > 100 µM
M14 melanoma
  TGI: > 100 µM
SN12C renal
  TGI: > 100 µM
HCC-2998 colon
  TGI: > 100 µM
NCI-H226 lung
  TGI: > 100 µM
OVCAR-5 ovarian
  TGI: > 100 µM
HOP-62 NSCLC
  TGI: > 100 µM
MDA-N
  TGI: > 100 µM
PC-3 prostate
  TGI: > 100 µM
SNB-75 CNS
  TGI: > 100 µM
RPMI-8226 leukemia
  TGI: > 100 µM
HL-60(TB) leukemia
  TGI: > 100 µM
SK-MEL-28 melanoma
  TGI: > 100 µM
U251 CNS
  TGI: > 100 µM
HCT-15 colon
  TGI: > 100 µM
NCI-H522 lung
  TGI: > 100 µM
OVCAR-3 ovarian
  TGI: > 100 µM
